Molecules are shown by their SMILES.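 Growth conditions: 96-well plates. Treatment: test compound, 48 hours, 5 concentrations. Analysis: linear interpolation between bracketing concentrations; unreached endpoints set to highest concentration. The concentration for 50% growth inhibition is given as GI50. Definition used: TGI = concentration required for complete inhibition of growth.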

Common to all, as to assay: inhibition of tumour cell growth, NCI panel, 48 h
The subject of assay [1] is RXF 393 renal.
The test system of assay [2] is A498 renal.
The subject of assay [3] is SF-295 CNS.
Assay [4] deals with SK-MEL-28 melanoma.
For assay [5], the system named is M14 melanoma.
Assay [6] deals with SF-268 CNS.
Assay [7] concerns HT29 colon.
Assay [8] concerns SK-MEL-2 melanoma.
Assay [9] deals with BT-549 breast.
The test system of assay [10] is MDA-MB-231 breast.

In the case of `O=C(c1ccc([N+](=O)[O-])cc1[N+](=O)[O-])N(/N=C/C=C/c1ccccc1)c1nnc(-c2ccccc2)c(-c2ccccc2)n1`, the TGI is 71.1 µM in assay [1]; 95.2 µM in assay [2]; more than 100 µM in assay [3]; 68.6 µM in assay [4]; more than 100 µM in [5]; more than 100 µM in [6]. The TGI in assay [7] was more than 100 µM; in [8] it was 97.5 µM.

As for `CO[C@@H]1CC[C@]2(C)OC[C@H](C)[C@@H]3C[C@@H](C)[C@@H](OC(C)=O)[C@@H]4[C@H]3[C@@H]2O[C@H]4C[C@@]1(C)O`, the GI50 in [1], in assay [2], in [3], in assay [9], in [4] and in assay [6] was more than 100 µM throughout. In addition, the GI50 in [10], in assay [7] and in assay [8] was more than 100 µM throughout. Besides, the TGI in assay [1], in [2], in [3], in [9], in assay [4] and in assay [6] was more than 100 µM in each case. Moreover, the TGI in assay [10], in [7] and in [8] was more than 100 µM throughout.

For the molecule `CCOc1ccc(OCC(=O)O)c2c1CCCC2=O`, the TGI in assay [1], in assay [2], in assay [3], in assay [4], in assay [5] and in assay [6] was more than 100 µM throughout. Besides, the TGI in [7] and in assay [8] was more than 100 µM each time.

`COc1ccc(NC(=O)CSc2nnc(-c3ccc(NC(C)=O)cc3)o2)cc1`: the TGI came to 28.7 µM in [1]; 30.2 µM in [2]; 68.5 µM in [3]; 34.7 µM in [4]; 33.8 µM in assay [5]; 34.8 µM in assay [6]. Further, the values for the TGI in assay [7] and in assay [8] were 25.2 µM and 38 µM, respectively.

With `C[C@H](CCOc1cccc(CC(=O)O)c1)N(Cc1cccc(C(F)(F)F)c1Cl)CC(c1ccccc1)c1ccccc1`, the GI50 is 4.18 µM in assay [1]; 4.44 µM in [3]; 5.39 µM in assay [9]; 7.3 µM in [4]; 7.23 µM in [5]; 5.28 µM in [6]. The GI50 in assay [10] is 10.5 µM; in assay [7] it was 4.43 µM; in assay [8], 5.84 µM. The TGI in assay [1] came to 16.2 µM; in assay [3] it was 18.6 µM; in assay [9], 20 µM; in assay [4], 20.1 µM; in [5], 24.2 µM; in assay [6], 20.3 µM. Besides, the TGI in assay [10] turned out to be 25.1 µM; in assay [7], 22.9 µM; in [8], 28.2 µM.

Turning to `COC(=O)c1c(C)cc(OC)c(C/C=C(\C)CCCc2coc(C=C(C)C)c2)c1OC`, the TGI in assay [3], in [9], in [4], in assay [5], in assay [6] and in assay [10] was more than 100 µM throughout. In addition, the TGI in [7] and in [8] was more than 100 µM each time.

On to `C[N+](C)(C)CC(=O)N/N=C(/Cc1cc(=O)oc2cc(O)ccc12)C(=O)Nc1ccc(Cl)cc1`, for which the TGI in assay [1], in [2], in assay [3], in [4], in assay [5] and in assay [6] was more than 100 µM in each case. In addition, the TGI in assay [7] and in assay [8] was more than 100 µM throughout.

With `NC(N)=Nc1nc2ccccc2o1`, the GI50 in assay [1], in assay [3], in assay [9], in [4], in [5] and in [6] was more than 100 µM in each case. The GI50 in assay [10], in [7] and in assay [8] was more than 100 µM in each case. For the same molecule, the TGI in assay [1], in assay [3], in assay [9], in assay [4], in assay [5] and in [6] was more than 100 µM in each case. The TGI in assay [10], in assay [7] and in [8] was more than 100 µM in each case.

With `C=C(C)[C@@H]1CC[C@]2(CN)CC[C@]3(C)[C@H](CC[C@@H]4[C@@]5(C)CCCNC(C)(C)[C@@H]5CC[C@]43C)[C@@H]12`, the GI50 in assay [1] is 1.75 µM; in assay [2], 1.5 µM; in assay [3], 1.78 µM; in assay [4], 1.74 µM; in assay [5] it was 1.69 µM; in [10], 1.79 µM. In addition, the GI50 in [8] was 2.11 µM. For the same molecule, the TGI is 3.49 µM in assay [1]; 2.92 µM in assay [2]; 3.29 µM in [3]; 3.38 µM in assay [4]; 3.18 µM in [5]; 3.52 µM in assay [10]. In assay [8], this molecule showed a TGI of 3.88 µM.

Turning to `Cc1nc2sccn2c1-c1nc2sccn2c1/C=C1/C(=O)Nc2ccccc21`, the GI50 in [2] is 2.04 µM; in assay [3], 2.12 µM; in [9], 1.85 µM; in [4], 5.42 µM; in assay [5], 3.99 µM; in assay [6], 6.18 µM. Also, the GI50 is 4.85 µM in assay [10], 2.96 µM in assay [7] and 2.68 µM in assay [8]. Further, the TGI in assay [2] was 8.26 µM; in assay [3], 8.09 µM; in assay [9], 7.27 µM; in assay [4] it was 46.2 µM; in assay [5], more than 100 µM; in assay [6] it was 33.1 µM. Moreover, the TGI in assay [10] turned out to be 23.9 µM; in assay [7], 10.7 µM; in [8], 36.8 µM.

For `Cc1nc2c(N)ncnc2o1`, the TGI in [1], in [2], in [3], in assay [4], in assay [5] and in [6] was more than 100 µM each time. Moreover, the TGI in assay [7] and in assay [8] was more than 100 µM throughout.

Consider `O=Cc1cc2c(cc1-c1cc3c(cc1C=O)OCO3)OCO2`, for which the TGI in assay [1] was 94.1 µM; in assay [2], more than 100 µM; in assay [3] it was more than 100 µM; in [4] it was more than 100 µM; in assay [5], more than 100 µM; in assay [6], more than 100 µM. Besides, the TGI in assay [7] and in [8] was more than 100 µM in each case.

For `CCOc1ccc(NC(=O)CC2SC(=Nc3ccc(C)cc3C)NC2=O)cc1` (centres undefined), the TGI in assay [1], in assay [2], in [3], in assay [4], in assay [5] and in assay [6] was more than 100 µM throughout. Besides, the TGI in assay [7] and in [8] was more than 100 µM in each case.

Turning to `C/C(=N\NC(N)=O)c1sc(-c2nc(C)c(/C(C)=N/NC(N)=O)s2)nc1C`, the TGI in assay [1], in [2], in assay [3], in assay [4], in assay [5] and in [6] was more than 100 µM each time. Also, the TGI in assay [7] and in assay [8] was more than 100 µM in each case.

For the molecule `CC12c3ccccc3C(OC=O)(c3ccccc31)C1(C)c3ccccc3C2(OC=O)c2ccccc21`, the TGI in assay [1], in assay [2], in [3], in assay [4], in [5] and in [6] was more than 100 µM throughout. For the same molecule, the TGI in assay [7] and in assay [8] was more than 100 µM in each case.

In the case of `CC(C)C1CN(C(=O)OCc2ccccc2)C2N1C(=O)C2(C)OCc1ccccc1` (centres undefined), the TGI in assay [1] is more than 100 µM; in [2], 95.8 µM; in [3], more than 100 µM; in assay [4], more than 100 µM; in assay [5], more than 100 µM; in assay [6], more than 100 µM. The TGI in [7] is more than 100 µM; in [8], 73.5 µM.

Take `COc1cc(/C=C2\CCCCC3=C2N=C2SC(C)=CN2C3c2cc(OC)c(OC)c(OC)c2)cc(OC)c1OC` (centres undefined): the GI50 in [1] was 3.06 µM; in assay [3], 18 µM; in assay [9], 1.15 µM; in assay [4], 89.1 µM; in assay [5], 23.7 µM; in [6], 36.7 µM. For the same molecule, the GI50 in assay [10] is 4.24 µM; in [7] it was more than 100 µM; in assay [8] it was 9.91 µM. For the same molecule, the TGI in [1], in [3], in [9], in [4], in assay [5] and in assay [6] was more than 100 µM throughout. Also, the TGI in [10], in assay [7] and in assay [8] was more than 100 µM throughout.

Regarding `O=c1[nH]c(=O)n(C2CC(O)C(CO)O2)cc1OS(=O)(=O)C(F)(F)F` (centres undefined), the TGI in [1], in assay [2], in assay [3], in assay [4], in [5] and in [6] was more than 100 µM in each case. Besides, the TGI in [7] and in [8] was more than 100 µM in each case.

With `O=C1c2cccc3cccc(c23)C(=O)N1CCN(CCO)CCO`, the TGI is 92.2 µM in [1]; 41.3 µM in [2]; more than 100 µM in assay [3]; more than 100 µM in assay [4]; 46.8 µM in assay [5]; more than 100 µM in assay [6]. Also, the TGI in assay [7] came out at 76.1 µM; in assay [8], 30.2 µM.

Take `O=C1C=C(Nc2ccc(Cl)cc2C(=O)c2ccccc2)c2ccccc2C1=O`: the TGI in assay [1], in [2], in assay [3], in assay [4], in assay [5] and in assay [6] was more than 100 µM in each case. The TGI in [7] and in assay [8] was more than 100 µM in each case.

As to `COc1ccc(-c2cc(=O)oc3c4c(ccc23)OCN(Cc2ccc(F)cc2)C4)cc1`, the GI50 in [1] was 13 µM; in assay [2] it was 1.23 µM; in assay [3] it was 15 µM; in assay [9], 14.6 µM; in assay [4], 15.1 µM; in assay [6] it was 16.6 µM. Besides, the figures for the GI50 in [10], in [7] and in assay [8] were 18.5 µM, 17.6 µM and 16.3 µM, respectively. In addition, the TGI in assay [1] turned out to be 29.2 µM; in assay [2], 10.3 µM; in assay [3] it was 30 µM; in assay [9], 31.3 µM; in [4], 30.7 µM; in assay [6], 34.8 µM. Besides, the TGI in assay [10] is 40.2 µM; in [7] it was 34.9 µM; in [8] it was 31.3 µM.

In the case of `O=C(CNc1ccc(Cl)cc1Cl)Nn1c(-c2ccccc2)nc2ccccc2c1=O`, the TGI in assay [1] worked out at 36.5 µM; in assay [3] it was 30.1 µM; in assay [9], 34.5 µM; in assay [4], 43.7 µM; in assay [5], 30.8 µM; in [6], 21.6 µM. Besides, the TGI in [10] turned out to be 36.7 µM; in [7] it was 37.6 µM.

In the case of `C=C(C)C(C1C=C(CCC(C=O)=C(C)C)C(=O)O1)C1(OC)C=C(C)C(=O)O1` (centres undefined), the GI50 in assay [3] was more than 100 µM; in [4] it was more than 100 µM; in [5], more than 100 µM; in assay [10], more than 100 µM; in [7], 57.9 µM; in assay [8] it was more than 100 µM. The TGI in assay [3], in assay [4], in assay [5], in assay [10], in assay [7] and in assay [8] was more than 100 µM throughout.

These data come from PubChem BioAssay (NCI).
